Assays:
SYK = SYK (Homo sapiens, UniProt P43405); assay: SYK enzyme assay, coupled enzyme assay; assay type: biochemical; conditions: 200 μM ATP, 4 μM poly Gly-Tyr peptide, 30° C.
Procedure: Compounds were screened for their ability to inhibit SYK using a standard coupled enzyme assay (Fox et al., Protein Sci. 1998, 7, 2249). Reactions were carried out in 100 mM HEPES (pH 7.5), 10 mM MgCl2, 25 mM NaCl, 1 mM DTT and 1.5% DMSO. Final substrate concentrations in the assay were 200 μM ATP (Sigma chemical Co.) and 4 μM poly Gly-Tyr peptide (Sigma Chemical Co.). Assays were carried out at 30° C. and 200 nM SYK. Final concentrations of the components of the coupled enzyme system were 2.5 mM phosphoenolpyruvate, 300 μM NADH, 30 μg/ml pyruvate kinase and 10 μg/ml lactate dehydrogenase.
An assay stock buffer solution was prepared containing all of the reagents listed above, with the exception of SYK, DTT, and the test compound of interest of the present invention. 56 μl of the test reaction was placed in a 96 well plate followed by the addition of 1 μl of 2 mM DMSO stock containing the test compound of the present invnetion (final compound concentration 30 μM). The plate was pre-incubated for ˜10 minutes at 30° C. and the reaction initiated by the addition of 10 μl of enzyme (final concentration 25 nM). Rates of reaction were obtained using a BioRad Ultramark plate reader (Hercules, Calif.) over a 5 minute read time at 30° C., and Ki values for the compounds of the present invention were determined according to standard methods.

TAK1A-TAB fusion protein = molecular target: T1, TAK1A-TAB fusion protein (Homo sapiens, UniProt O43318); assay: TAK-1 inhibition assay, radiometric filter binding assay; assay type: biochemical; conditions: 50 μM ATP, 12 μM bovine myelin basic protein, 20 nM TAK1A-TAB fusion protein
T1 construct: using 20 nM TAK1A-TAB fusion protein
T1 sequence (O43318 with tags, fused parts or gaps isoform O43318-2 limits assumed): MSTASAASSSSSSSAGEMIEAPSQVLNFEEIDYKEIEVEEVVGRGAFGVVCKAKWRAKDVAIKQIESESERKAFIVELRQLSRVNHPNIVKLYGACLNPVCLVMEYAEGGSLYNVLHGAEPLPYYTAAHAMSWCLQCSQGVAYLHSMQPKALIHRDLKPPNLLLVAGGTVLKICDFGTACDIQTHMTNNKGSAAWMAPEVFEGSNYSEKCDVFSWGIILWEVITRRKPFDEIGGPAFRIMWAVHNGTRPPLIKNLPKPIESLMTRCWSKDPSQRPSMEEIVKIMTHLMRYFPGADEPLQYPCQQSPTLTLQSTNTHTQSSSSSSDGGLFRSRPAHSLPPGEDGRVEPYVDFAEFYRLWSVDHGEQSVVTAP
Procedure: Compounds were screened for their ability to inhibit TAK1A kinase activity using a radiometric filter binding assay. Reactions were carried out in a solution containing Buffer A (100 mM HEPES (pH 7.5), 10 mM MgCl2), 25 mM NaCl, 2 mM DTT, and 1.5% DMSO. Final substrate concentrations in the assay were 50 μM ATP (a mixture of unlabeled ATP (Sigma Chemicals, St Louis, Mo.) and ^33P-labeled ATP (PerkinElmer Life Sciences, Boston, Mass.) for a final specific activity of 50 Ci/mol), and 12 μM bovine myelin basic protein (MBP, Vertex Pharmaceuticals, Cambridge, Mass.). Reactions were carried out at ambient temperature (˜20° C.) using 20 nM TAK1A-TAB fusion protein. Under these conditions the extent of reaction is linear with time for a period of 2 hours.
A test compound of the present invention (1 μL in DMSO) was combined with ATP and Buffer A in a final volume of 47 μL in a 96 well plate. Typically, a 6 point titration was conducted by preparing serial dilutions (from 10 mM compound stocks) with DMSO of the test compounds of the present invention in daughter plates, for final concentrations spanning 0.046 μM to 3.73 μM. The reaction was initiated by the addition of 20 μl of an enzyme stock solution consisting of TAK1A-TAB fusion (described by Sugita, T. et al. in Biochem. Biophys. Res. Comm. 2002, 297, 1277-1281), MBP, Buffer A, NaCl, and DTT. The reaction was allowed to proceed for two hours at ambient temperature, then quenched with an equal volume of 10 mM unlabeled ATP in 10% trichloroacetic acid. A 110 μL aliquot of the quenched reaction was transferred to a Multiscreen PH filter plate (Millipore, Billerica, Mass.) and allowed to incubate at ambient temperature overnight (typically 16-20 hours). Following incubation the filter plates were washed with 3×150 μL aliquots of 5% trichloroacetic acid using a modified Biotek Elx405 plate washer. A 70 μL aliquot of Microscint 20 scintillation fluid (PerkinElmer) was added to each well, and the plate was then sealed and read on a TopCount NXT microplate scintillation counter (PerkinElmer). The Ki values were determined from the rate data as a function of inhibitor concentration.

A Ki (SYK) of 0.2 to 1 µM was found for `Fc1cccc(-c2cnoc2-c2c[nH]c3ncccc23)c1F` [Compound 1, 3-[4-(2,3-Difluoro-phenyl)-isoxazol-5-yl]-1H-pyrrolo[2,3-b]pyridine] in this work.
A Ki (TAK1A-TAB fusion protein) of 0.2 to 1 µM was found for `Oc1cnc2[nH]cc(-c3oncc3-c3cccc(Cl)c3Cl)c2c1` [Compound 48, 3-[4-(2,3-Dichloro-phenyl)-isoxazol-5-yl]-1H-pyrrolo[2,3-b]pyridin-5-ol] in this work.
A Ki (TAK1A-TAB fusion protein) of 0.2 to 1 µM was found for `COc1cnc2[nH]cc(-c3oncc3-c3cccc(Cl)c3Cl)c2c1` [Compound 49, 3-[4-(2,3-Dichloro-phenyl)-isoxazol-5-yl]-5-methoxy-1H-pyrrolo[2,3-b]pyridine] in this work.
A Ki (TAK1A-TAB fusion protein) of 0.2 to 1 µM was found for `CN(C)CC#Cc1cnc2[nH]cc(-c3oncc3-c3cccc(F)c3F)c2c1` [Compound 53, (3-{3-[4-(2,3-Difluoro-phenyl)-isoxazol-5-yl]-1H-pyrrolo[2,3-b]pyridin-5-yl}-prop-2-ynyl)-dimethyl-amine] in this work.
A Ki (TAK1A-TAB fusion protein) of 1 to 12.5 µM was found for `Fc1cccc(-c2cnoc2-c2c[nH]c3ncc(C4CCNCC4)cc23)c1F` [Compound 62, 3-[4-(2,3-Difluoro-phenyl)-isoxazol-5-yl]-5-piperidin-4-yl-1H-pyrrolo[2,3-b]pyridine] in this work.
A Ki (TAK1A-TAB fusion protein) of 0.2 to 1 µM was found for `Fc1ccc(-c2cnc3[nH]cc(-c4oncc4-c4cccc(F)c4F)c3c2)cn1` [Compound 69, 3-[4-(2,3-Difluoro-phenyl)-isoxazol-5-yl]-5-(6-fluoro-pyridin-3-yl)-1H-pyrrolo[2,3-b]pyridine] in this work.
A Ki (TAK1A-TAB fusion protein) of 1 to 12.5 µM was found for `CCN1CCC(c2cnc3[nH]cc(-c4oncc4-c4cccc(F)c4F)c3c2)CC1` [Compound 72, 3-[4-(2,3-Difluoro-phenyl)-isoxazol-5-yl]-5-(1-ethyl-piperidin-4-yl)-1H-pyrrolo[2,3-b]pyridine] in this work.
A Ki (TAK1A-TAB fusion protein) of 0.2 to 1 µM was found for `COc1ccnc(-c2cnc3[nH]cc(-c4oncc4-c4cccc(F)c4F)c3c2)c1` [Compound 78, 3-[4-(2,3-Difluoro-phenyl)-isoxazol-5-yl]-5-(4-methoxy-pyridin-2-yl)-1H-pyrrolo[2,3-b]pyridine] in this work.
A Ki (TAK1A-TAB fusion protein) of 0.2 to 1 µM was found for `CN(C)C(=O)c1ccc(-c2cnc3[nH]cc(-c4oncc4-c4cccc(F)c4F)c3c2)nc1` [Compound 79, 6-{3-[4-(2,3-Difluoro-phenyl)-isoxazol-5-yl]-1H-pyrrolo [2,3-b]pyridin-5-yl}-N,N-dimethyl-nicotinamide] in this work.
A Ki (TAK1A-TAB fusion protein) of 0.2 to 1 µM was found for `CS(=O)(=O)n1ccc2cc(-c3cnc4[nH]cc(-c5oncc5-c5cccc(F)c5F)c4c3)cnc21` [Compound 97, 3′-[4-(2,3-Difluoro-phenyl)-isoxazol-5-yl]-1-methanesulfonyl-1H, 1′H-[5,5′]bi[pyrrolo[2,3-b]pyridinyl]] in this work.
A Ki (TAK1A-TAB fusion protein) of 0.2 to 1 µM was found for `Fc1cccc(-n2cnnc2-c2c[nH]c3ncc(-c4ccc(CN5CCOCC5)cc4)cc23)c1F` [Compound 109, 3-[4-(2,3-Difluoro-phenyl)-4H-[1,2,4]triazol-3-yl]-5-(4-morpholin-4-ylmethyl-phenyl)-1H-pyrrolo[2,3-b]pyridine] in this work.
A Ki (TAK1A-TAB fusion protein) of under 0.2 µM was found for `CN1CCN(c2ccc(-c3cnc4[nH]cc(-c5nncn5-c5cccc(F)c5F)c4c3)cc2)CC1` [Compound 110, 3-[4-(2,3-Difluoro-phenyl)-4H-[1,2,4]triazol-3-yl]-5-[4-(4-methyl-piperazin-1-yl)-phenyl]-1H-pyrrolo[2,3-b]pyridine] in this work.
A Ki (TAK1A-TAB fusion protein) of 1 to 12.5 µM was found for `CN1CCN(c2ccc(-c3cnc4[nH]cc(-c5nncn5-c5cccc(F)c5F)c4c3)cn2)CC1` [Compound 112] in this work.
A Ki (TAK1A-TAB fusion protein) of 1 to 12.5 µM was found for `Fc1cccc(-n2cnnc2-c2c[nH]c3ncc(-c4cccnc4)cc23)c1F` [Compound 113, 3-[4-(2,3-Difluoro-phenyl)-4H-[1,2,4]triazol-3-yl]-5-pyridin-3-yl-1H-pyrrolo[2,3-b]pyridine] in this work.
A Ki (TAK1A-TAB fusion protein) of 1 to 12.5 µM was found for `Fc1cccc(-n2cnnc2-c2c[nH]c3ncc(-c4ccncc4)cc23)c1F` [Compound 114, 3-[4-(2,3-Difluoro-phenyl)-4H-[1,2,4]triazol-3-yl]-5-pyridin-4-yl-1H-pyrrolo[2,3-b]pyridine] in this work.
A Ki (TAK1A-TAB fusion protein) of 0.2 to 1 µM was found for `Fc1cccc(-n2cnnc2-c2c[nH]c3ncc(-c4ccc(N5CCC[C@H]5CN5CCCC5)nc4)cc23)c1F` [Compound 115, 3-[4-(2,3-Difluoro-phenyl)-4H-[1,2,4]triazol-3-yl]-5-[6-(2-pyrrolidin-1-ylmethyl-pyrrolidin-1-yl)-pyridin-3-yl]-1H-pyrrolo[2,3-b]pyridine] in this work.
A Ki (TAK1A-TAB fusion protein) of 0.2 to 1 µM was found for `OC1CCN(c2ccc(-c3cnc4[nH]cc(-c5nncn5-c5cccc(F)c5F)c4c3)cn2)CC1` [Compound 116, 5′-{3-[4-(2,3-Difluoro-phenyl)-4H-[1,2,4]triazol-3-yl]-1H-pyrrolo[2,3-b]pyridin-5-yl}-3,4,5,6-tetrahydro-2H-[1,2′]bi-pyridinyl-4-ol] in this work.
A Ki (TAK1A-TAB fusion protein) of 0.2 to 1 µM was found for `CN1CCCN(c2ccc(-c3cnc4[nH]cc(-c5nncn5-c5cccc(F)c5F)c4c3)cn2)CC1` [Compound 117, 3-[4-(2,3-Difluoro-phenyl)-4H-[1,2,4]triazol-3-yl]-5-[6-(4-methyl-[1,4]diazepan-1-yl)-pyridin-3-yl]-1H-pyrrolo [2,3-b]-pyridine] in this work.
A Ki (TAK1A-TAB fusion protein) of 0.2 to 1 µM was found for `Fc1cccc(-n2cnnc2-c2c[nH]c3ncc(-c4ccc(N5CCCC5)nc4)cc23)c1F` [Compound 118, 3-[4-(2,3-Difluoro-phenyl)-4H-[1,2,4]triazol-3-yl]-5-(6-pyrrolidin-1-yl-pyridin-3-yl)-1H-pyrrolo[2,3-b]pyridine] in this work.
A Ki (TAK1A-TAB fusion protein) of 1 to 12.5 µM was found for `CN(C)CCNc1ccc(-c2cnc3[nH]cc(-c4nncn4-c4cccc(F)c4F)c3c2)cn1` [Compound 119, N′-(5-{3-[4-(2,3-Difluoro-phenyl)-4H-[1,2,4]triazol-3-yl]-1H-pyrrolo[2,3-b]pyridin-5-yl}-pyridin-2-yl)-N,N-dimethyl-ethane-1,2-diamine] in this work.
A Ki (TAK1A-TAB fusion protein) of under 0.2 µM was found for `Fc1cccc(-c2cnoc2-c2c[nH]c3ncc(C4=CCC(NCc5ccccc5)CC4)cc23)c1F` (stereo not shown) [Compound 136, Benzyl-(4-{3-[4-(2,3-difluoro-phenyl)-isoxazol-5-yl]-1H-pyrrolo[2,3-b]pyridin-5-yl}-cyclohex-3-enyl)-amine] in this work.
A Ki (TAK1A-TAB fusion protein) of under 0.2 µM was found for `NC1CC=C(c2cnc3[nH]cc(-c4oncc4-c4cccc(F)c4F)c3c2)CC1` (stereo not shown) [Compound 137, 4-{3-[4-(2,3-Difluoro-phenyl)-isoxazol-5-yl]-1H-pyrrolo [2,3-b]pyridin-5-yl}-cyclohex-3-enylamine] in this work.
A Ki (TAK1A-TAB fusion protein) of under 0.2 µM was found for `CN(C)C1CC=C(c2cnc3[nH]cc(-c4oncc4-c4cccc(F)c4F)c3c2)CC1` (stereo not shown) [Compound 138, (4-{3-[4-(2,3-Difluoro-phenyl)-isoxazol-5-yl]-1H-pyrrolo[2,3-b]pyridin-5-yl}-cyclohex-3-enyl)-dimethyl-amine] in this work.
A Ki (TAK1A-TAB fusion protein) of 0.2 to 1 µM was found for `Fc1cccc(-c2cnoc2-c2c[nH]c3ncc(C4=CCC(N5CCOCC5)CC4)cc23)c1F` (stereo not shown) [Compound 139, 3-[4-(2,3-Difluoro-phenyl)-isoxazol-5-yl]-5-(4-morpholin-4-yl-cyclohex-1-enyl)-1H-pyrrolo[2,3-b]pyridine] in this work.
A Ki (TAK1A-TAB fusion protein) of under 0.2 µM was found for `CS(=O)(=O)NC1CC=C(c2cnc3[nH]cc(-c4oncc4-c4cccc(F)c4F)c3c2)CC1` (stereo not shown) [Compound 140, N-(4-{3-[4-(2,3-Difluoro-phenyl)-isoxazol-5-yl]-1H-pyrrolo[2,3-b]pyridin-5-yl}-cyclohex-3-enyl)-methanesulfonamide] in this work.
